{"source": "patent US20160084824A1", "about": "“DRUG DISCOVERY METHODS INVOLVING A PRECLNICAL, IN VITRO ISOLATED GASTROINTESTINAL EPITHELIAL STEM CELL-LIKE PROGENITOR CELL SYSTEM” (AlfaGene Bioscience, Inc., priority 2008, published 2016)", "key": {"[1]": {"system": "IL-8 production by HIPEC cells", "assay": "IL-8 production by HIPECs, ELISA", "format": "cell-based, human", "conditions": "for IL-8 production: 5-ASA 1-10 μg/ml in culture medium", "experimental": "Human gastrointestinal epithelial stem cell-like progenitor cells were isolated from a normal segment of the large intestine and a segment of the large intestine in a diseased state (such as a segment having ulcerative colitis). Epithelial monolayers were grown from these progenitor crypt cells on the appropriate BSME as described above. The effects of 5-ASA on spontaneous, LPS, or IFN-γ stimulated IL-8 production were assessed on HIPEC cells cultured in the presence or absence of either LPS or IFN-γ and 5-ASA (1-10 μg/ml). The level of IL-8 production was measured by ELISA."}, "[2]": {"system": "malignant colonic adenocarcinoma cell line (HT29)", "assay": "Cellular toxicity of SN-38, MTT viability assay, HT29", "format": "cell-based, human", "conditions": "HT29 cells; increasing amounts of SN-38", "experimental": "(§1) Briefly, HGISC-derived primary epithelial cell lines (A2J1 and SOJ2) and the malignant colonic adenocarcinoma cell line (HT29) were cultured, as described above in Examples 1A and 1B in medium containing different cytotoxic levels of the irinotecan metabolite 7-ethyl-10-hydroxy-20(S)-camptothecin (SN-38). […] Each cell culture was assessed for viability utilizing the MIT assay.\n(§2) Yellow MTT (3-(4,5-Dimethylthiazol-2-yl)-2,5-diphenyltetrazolium bromide, a tetrazole) is reduced to purple formazan in living cells. A solubilization solution (usually either dimethyl sulfoxide, an acidified ethanol solution, or a solution of the detergent sodium dodecyl sulfate in diluted hydrochloric acid) is added to dissolve the insoluble purple formazan product into a colored solution. The absorbance of this colored solution may be quantified by measuring at a certain wavelength (usually between 500 and 600 nm) using a spectrophotometer. The absorption maximum is dependent on the solvent employed. The MTT assay may be used to determine cytotoxicity of materials, since those materials that result in cell toxicity, and therefore metabolic dysfunction, yield decreased performance in the assay."}, "[3]": {"system": "HGISC-derived primary epithelial cell line SOJ2", "assay": "Cellular toxicity of SN-38, MTT viability assay, SOJ2", "format": "cell-based, human", "conditions": "SOJ2 cells; increasing amounts of SN-38", "experimental": "as §1, §2"}, "[4]": {"system": "HGISC-derived primary epithelial cell line A2J1", "assay": "Cellular toxicity of SN-38, MTT viability assay, A2J1", "format": "cell-based, human", "conditions": "A2J1 cells; increasing amounts of SN-38", "experimental": "as §1, §2"}, "[5]": {"system": "HIPEC monolayer derived from small intestinal segment (A2J1)"}, "[6]": {"conditions": "cited from earlier work"}}}
{"compound": "Nc1ccc(O)c(C(=O)O)c1", "note": "[5-ASA, 5-aminosalicyclic acid]", "values": [{"measurement": "IL-8 production", "setting": "[1]; IBS HIPECs", "result": "suppressed"}, {"measurement": "IL-8 production", "setting": "[1]; normal HIPECs", "result": "suppressed"}]}
{"compound": "CCc1c2c(nc3ccc(O)cc13)-c1cc3c(c(=O)n1C2)COC(=O)[C@]3(O)CC", "note": "[SN-38, 7-ethyl-10-hydroxy-20(S)-camptothecin]", "values": [{"measurement": "percent viability (MTT)", "setting": "[2]", "result": "unaffected"}, {"measurement": "percent viability (MTT)", "setting": "[3]", "result": "above 50%"}, {"measurement": "percent viability (MTT)", "setting": "[4]", "result": 0, "unit": "%"}]}
{"compound": "CC(C)NCC(O)COc1cccc2ccccc12", "note": "(stereo not drawn) [propranolol]", "values": [{"measurement": "permeability through small intestine (A2J1) compared with large intestine (5A)", "setting": "[5]", "result": "greater than through large intestine (5A)"}, {"measurement": "absorption", "setting": "[6]; administered in vivo", "result": "absorbed rapidly and completely"}, {"measurement": "bioavailability", "setting": "[6]; due to extensive first-pass metabolism", "result": "variable bioavailability"}]}
{"compound": "IFN-γ: cytokine produced predominantly by natural killer T cells as part of the innate immune response", "values": [{"measurement": "effect of stimulation on spontaneous IL-8 production", "setting": "[1]; HIPECs from normal controls and from patients with IBS", "result": "moderately enhanced"}]}
